Data from patent US20060292653A1, “Metal mediated fluorescence superquenching assays for detection of phosphorylation and dephosphorylation of quencher-labeled substrates” (priority 2005, published 2006).

What was measured:
Type in all cases: biochemical
[1] = target: T1, PI3 alpha (Homo sapiens, UniProt P42336); experiment: Enhancer activity, real-time (kinetic) versus endpoint monitoring
T1 construct: purchased Upstate (Lake Placid, N.Y.)
From the text: (§1) Kinetic or real-time assays allow one to observe the mode of action of inhibitors and activator of enzyme activity in “real time”. Several inhibitor profiles are contemplated herein.
(§2) Another type of inhibitor profile utilizes the mode of action of enhancers. Enhancers may cause a very steep increase in activity (compared to control) within several minutes of reaction and then flatten out over time to an activity equal to that of the control. Thus, endpoint measurement could miss these enhancers. For example, Trypohostin 35, Trypohostin 25 and GW 5074 are enhancers of PI3 alpha, beta, and delta, respectively, in real time, and result in a >50% increase of activity within 5 minutes of reaction compared to ˜20% when monitored in endpoint mode. Enhancers may not be of therapeutic value for PI3Ks (since their pathological effect is exerted mainly by over-activity to begin with) but knowledge of chemical structure of enhancers may facilitate identification and/or confirmation of environmental pathogens, which may cause disease.

[2] = target: T2, PI3 beta (Homo sapiens, UniProt P42338); experiment: as above
T2 construct: purchased Upstate (Lake Placid, N.Y.)
T2 sequence (P42338 whole entry): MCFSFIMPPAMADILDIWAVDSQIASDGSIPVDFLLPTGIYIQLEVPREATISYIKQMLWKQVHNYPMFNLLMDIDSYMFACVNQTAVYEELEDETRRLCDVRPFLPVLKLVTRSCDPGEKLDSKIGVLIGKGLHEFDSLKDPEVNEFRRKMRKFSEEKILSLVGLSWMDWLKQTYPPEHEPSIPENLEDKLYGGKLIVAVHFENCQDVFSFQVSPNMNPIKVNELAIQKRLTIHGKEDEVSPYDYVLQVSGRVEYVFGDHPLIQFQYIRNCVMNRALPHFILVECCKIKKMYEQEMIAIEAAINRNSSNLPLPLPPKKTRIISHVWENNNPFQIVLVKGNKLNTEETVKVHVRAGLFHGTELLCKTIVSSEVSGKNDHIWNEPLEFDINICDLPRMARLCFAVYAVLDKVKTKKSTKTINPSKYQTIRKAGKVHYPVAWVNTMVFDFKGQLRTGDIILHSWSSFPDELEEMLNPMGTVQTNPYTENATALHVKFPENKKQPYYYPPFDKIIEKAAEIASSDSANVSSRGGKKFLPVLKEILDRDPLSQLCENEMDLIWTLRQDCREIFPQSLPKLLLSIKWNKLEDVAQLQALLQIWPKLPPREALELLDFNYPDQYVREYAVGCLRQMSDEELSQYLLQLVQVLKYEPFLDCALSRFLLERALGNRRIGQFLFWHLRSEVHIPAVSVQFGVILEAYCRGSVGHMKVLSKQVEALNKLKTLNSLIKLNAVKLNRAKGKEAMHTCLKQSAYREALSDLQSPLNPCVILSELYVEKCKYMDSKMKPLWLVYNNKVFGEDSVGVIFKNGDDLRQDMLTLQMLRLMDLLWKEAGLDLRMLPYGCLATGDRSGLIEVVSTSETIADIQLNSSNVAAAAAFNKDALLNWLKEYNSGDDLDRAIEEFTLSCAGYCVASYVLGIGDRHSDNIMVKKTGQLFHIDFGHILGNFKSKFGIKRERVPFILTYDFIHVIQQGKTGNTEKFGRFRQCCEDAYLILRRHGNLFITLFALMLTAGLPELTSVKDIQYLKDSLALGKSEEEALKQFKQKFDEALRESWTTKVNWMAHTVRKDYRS
T2 sequence (P27986 whole entry partner): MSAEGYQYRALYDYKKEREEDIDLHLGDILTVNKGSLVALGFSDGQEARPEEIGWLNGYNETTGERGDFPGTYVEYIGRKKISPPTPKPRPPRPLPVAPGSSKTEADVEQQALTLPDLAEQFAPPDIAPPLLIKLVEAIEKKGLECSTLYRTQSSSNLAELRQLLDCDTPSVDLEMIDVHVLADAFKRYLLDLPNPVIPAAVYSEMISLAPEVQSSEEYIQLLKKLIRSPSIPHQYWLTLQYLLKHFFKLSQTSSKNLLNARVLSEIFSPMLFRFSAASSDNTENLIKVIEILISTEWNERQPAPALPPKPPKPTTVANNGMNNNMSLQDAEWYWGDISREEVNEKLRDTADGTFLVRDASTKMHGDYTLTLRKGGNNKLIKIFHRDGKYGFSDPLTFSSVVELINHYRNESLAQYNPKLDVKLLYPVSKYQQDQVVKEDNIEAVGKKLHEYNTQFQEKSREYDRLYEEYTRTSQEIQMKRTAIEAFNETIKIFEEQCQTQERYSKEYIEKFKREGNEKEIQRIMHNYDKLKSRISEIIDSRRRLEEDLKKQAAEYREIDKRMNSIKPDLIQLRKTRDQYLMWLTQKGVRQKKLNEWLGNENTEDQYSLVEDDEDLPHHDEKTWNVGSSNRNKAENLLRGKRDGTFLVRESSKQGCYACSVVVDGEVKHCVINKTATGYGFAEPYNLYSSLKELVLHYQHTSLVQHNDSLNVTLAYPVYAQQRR
From the text: as §1, §2

[3] = target: T3, PI3 delta (Homo sapiens, UniProt O00329); experiment: as above
T3 construct: purchased Upstate (Lake Placid, N.Y.)
T3 sequence (O00329 whole entry, species assumed): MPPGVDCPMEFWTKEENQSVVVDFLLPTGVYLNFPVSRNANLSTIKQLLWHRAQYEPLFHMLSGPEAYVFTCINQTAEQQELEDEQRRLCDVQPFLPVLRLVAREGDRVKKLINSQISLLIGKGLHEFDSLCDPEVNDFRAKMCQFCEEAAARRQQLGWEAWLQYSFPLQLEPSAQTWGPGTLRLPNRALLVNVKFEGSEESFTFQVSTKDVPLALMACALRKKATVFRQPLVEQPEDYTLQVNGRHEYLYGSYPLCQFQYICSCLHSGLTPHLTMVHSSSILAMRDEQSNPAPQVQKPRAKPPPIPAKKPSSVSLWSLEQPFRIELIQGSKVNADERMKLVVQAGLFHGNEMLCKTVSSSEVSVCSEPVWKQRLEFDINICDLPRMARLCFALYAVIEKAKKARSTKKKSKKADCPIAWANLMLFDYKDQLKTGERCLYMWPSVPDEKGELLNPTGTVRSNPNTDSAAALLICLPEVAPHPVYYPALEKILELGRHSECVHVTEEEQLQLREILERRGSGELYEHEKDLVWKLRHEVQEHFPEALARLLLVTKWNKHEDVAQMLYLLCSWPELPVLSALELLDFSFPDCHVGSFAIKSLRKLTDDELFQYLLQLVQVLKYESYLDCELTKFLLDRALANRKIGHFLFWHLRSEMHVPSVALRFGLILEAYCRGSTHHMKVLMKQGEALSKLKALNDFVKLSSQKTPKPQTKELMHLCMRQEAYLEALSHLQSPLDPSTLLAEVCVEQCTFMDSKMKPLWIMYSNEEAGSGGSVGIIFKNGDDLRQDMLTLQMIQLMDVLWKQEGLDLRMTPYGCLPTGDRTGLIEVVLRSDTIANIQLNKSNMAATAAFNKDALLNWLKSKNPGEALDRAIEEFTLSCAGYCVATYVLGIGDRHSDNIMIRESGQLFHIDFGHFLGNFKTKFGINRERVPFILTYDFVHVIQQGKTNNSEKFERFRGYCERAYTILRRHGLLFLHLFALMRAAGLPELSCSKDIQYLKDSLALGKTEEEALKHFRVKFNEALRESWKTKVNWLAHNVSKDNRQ
T3 sequence (P27986 whole entry partner, species assumed): as the sequence (P27986 whole entry partner) above
From the text: as §1, §2

[4] = target: T4, PI3K δ (Homo sapiens, UniProt O00329); details: ratiometric 490 nm/574 nm
T4 construct: purchased Upstate (Lake Placid, N.Y.)
T4 sequence (O00329 whole entry, species assumed): as the sequence (O00329 whole entry, species assumed) above
T4 sequence (P27986 whole entry partner, species assumed): as the sequence (P27986 whole entry partner) above
Procedure: Percent activities are plotted for each compound screened using the ratio of wavelengths at 490 nm/574 nm. Inhibition values were calculated relative to positive and negative controls wells and corrected for background (filled squares, filled diamonds). […] Final concentrations of enzyme, substrate and ATP were 2.6 nM, 250 nM and 50 μM. The delta RFU between reactions in the presence and absence of enzyme were obtained and used to calculate % inhibition.

[5] = real time, within 5 minutes of reaction

T1 sequence (P42336 whole entry, species assumed): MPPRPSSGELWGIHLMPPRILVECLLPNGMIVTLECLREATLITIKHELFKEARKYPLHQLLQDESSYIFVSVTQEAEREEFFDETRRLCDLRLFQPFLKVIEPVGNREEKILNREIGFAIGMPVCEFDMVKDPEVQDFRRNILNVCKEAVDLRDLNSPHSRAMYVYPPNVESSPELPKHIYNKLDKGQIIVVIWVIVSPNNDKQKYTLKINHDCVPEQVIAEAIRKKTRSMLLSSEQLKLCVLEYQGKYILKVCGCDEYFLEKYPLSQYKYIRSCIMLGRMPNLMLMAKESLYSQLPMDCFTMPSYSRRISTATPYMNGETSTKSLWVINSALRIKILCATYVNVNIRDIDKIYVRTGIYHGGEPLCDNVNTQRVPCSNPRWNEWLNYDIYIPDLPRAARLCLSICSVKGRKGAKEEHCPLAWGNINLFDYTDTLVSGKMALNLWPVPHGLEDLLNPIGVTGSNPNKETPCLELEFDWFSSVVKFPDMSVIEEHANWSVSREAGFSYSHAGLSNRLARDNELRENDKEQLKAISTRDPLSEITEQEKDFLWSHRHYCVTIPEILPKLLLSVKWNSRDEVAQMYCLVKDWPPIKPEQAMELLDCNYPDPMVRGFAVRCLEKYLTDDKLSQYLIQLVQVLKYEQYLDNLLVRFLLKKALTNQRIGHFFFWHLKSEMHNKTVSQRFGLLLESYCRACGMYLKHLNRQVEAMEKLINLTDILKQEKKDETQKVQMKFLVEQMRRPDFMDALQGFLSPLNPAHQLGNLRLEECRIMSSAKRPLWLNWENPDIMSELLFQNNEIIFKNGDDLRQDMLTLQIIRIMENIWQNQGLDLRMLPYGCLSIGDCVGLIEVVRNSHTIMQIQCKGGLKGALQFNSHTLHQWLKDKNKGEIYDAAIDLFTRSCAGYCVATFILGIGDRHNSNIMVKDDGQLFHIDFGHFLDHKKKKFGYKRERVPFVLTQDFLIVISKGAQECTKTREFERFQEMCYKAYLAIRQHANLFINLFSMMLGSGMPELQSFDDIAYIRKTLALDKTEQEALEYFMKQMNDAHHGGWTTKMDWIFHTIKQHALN
T1 sequence (P27986 whole entry partner, species assumed): as the sequence (P27986 whole entry partner) above

Compound: Trypohostin 35
- increase of activity compared to control ([1]; endpoint mode): ~20%
- increase of activity compared to control [1, 5]: > 50%

Compound: N#CC(C#N)=Cc1cc(O)c(O)c(O)c1 [Trypohostin 25]
- increase of activity compared to control ([2]; endpoint mode): ~20%
- increase of activity compared to control [2, 5]: > 50%

Compound: O=C1Nc2ccc(I)cc2/C1=C/c1cc(Br)c(O)c(Br)c1 [GW 5074]
- increase of activity compared to control ([3]; endpoint mode): ~20%
- increase of activity compared to control [3, 5]: > 50%

Compound: O.O.O=c1c(O)c(-c2ccc(O)c(O)c2)oc2cc(O)cc(O)c12 [Quercetin Dihydrate]
- identification as inhibitor in the 84 compound screen [4]: correctly identified
